According to patent US11883492B2, “Combination treatment of chemoresistant cancers” (THE REGENTS OF THE UNIVERSITY OF CALIFORNIA, priority 2018, dated 2024):

Columns and labels:
[1] = test system: PDX4; assay: Tumorigenicity (re-engraftment) assay with tumor cells of PDX4 removed from treated mice; assay type: in vivo, Rag2−/−γc−/− mice; conditions: for Tumor incidence (mice with tumors/mice implanted): cells isolated from PDX4 of paclitaxel-treated mice (Table 6, FIG. 2E)
Text: (§1) Patient-Derived xenografts. Four-to-eight-week-old female Rag2−/−γc−/− mice were used in this study following the care and use of laboratory animal guidelines of National Institutes of Health (NIH). The UC San Diego Medical Experimental Animal Care Committee approved the study protocol. The mice were housed in laminar-flow cabinets under specific pathogen-free conditions and fed ad libitum. The PDX were established using mechanically minced fresh breast cancer specimens. Early passage (P1-P5) of primary tumor tissues from these PDX models were mechanically minced, enzymatically and mechanically dissociated using GentleMACS Dissociator (Miltenyi Biotec), in accordance to the manufacturer's instruction. Erythrocytes were removed via density gradient centrifugation in Percoll™ Plus (GE Healthcare Life Sciences, CC-17-5442-01).
(§2) Tumorigenicity Assay. Cells were suspended in Mammary-Epithelial Growth Medium (MEGM), mixed with Matrigel (BD Biosciences, San Diego, CA) at a 1:1 ratio, and then transplanted into the mammary pads of Rag2−/−γc−/− mice. We monitored the mice weekly for the development of tumors. We extirpated the tumor to examine the tumor cells for expression of ROR1 at 10 days after treatment with 13.4 mg/kg paclitaxel via intravenously injection for consecutive 5 days. To examine for metastases, we harvested the lungs of 6 mice from each treatment group at 42 or 48 days post-transplantation and fixed the tissue with 10%-formalin, prior to embedding in paraffin. Each paraffin block was cut into 200-μm sections. Tumor foci were scored in a blinded fashion by a board-certified pathologist. To test whether cirmtuzumab alone or in combination with paclitaxel impaired engraftment of primary breast tumor cells, 1×10^5 single cells isolated from PDX4 or PDX5 were injected into the mammary pads of 4- to 6-week-old Rag2−/−γc−/− mice. When tumor size reached 300 mm3, 13.4 mg/kg paclitaxel was injected intravenously for consecutive 5 days or/and 10 mg/kg of cirmtuzumab was injected intravenously at day 0, day 7 and then biweekly.

[2] = test system: PDX5; assay: Tumorigenicity (re-engraftment) assay with tumor cells of PDX5 removed from treated mice; assay type: in vivo, Rag2−/−γc−/− mice; conditions: for Tumor incidence (mice with tumors/mice implanted): cells isolated from PDX5 of paclitaxel-treated mice (Table 6, FIG. 2E)
Text: as §1, §2

[3] = test system: breast cancer PDX; assay: Capacity of PDX tumor cells from treated mice to form secondary PDX; assay type: in vivo, Rag2−/−γc−/− mice; conditions: cirmtuzumab 10 mg/kg, paclitaxel 13.4 mg/kg or both (FIG. 5C)
Text: as §1
Tumorigenicity Assay. Cells were suspended in Mammary-Epithelial Growth Medium (MEGM), mixed with Matrigel (BD Biosciences, San Diego, CA) at a 1:1 ratio, and then transplanted into the mammary pads of Rag2−/−γc−/− mice. We monitored the mice weekly for the development of tumors. We extirpated the tumor to examine the tumor cells for expression of ROR1 at 10 days after treatment with 13.4 mg/kg paclitaxel via intravenously injection for consecutive 5 days. […] Tumor foci were scored in a blinded fashion by a board-certified pathologist. […]

[4] = test system: breast cancer PDX (PDX4, PDX5); assay: Tumor growth of breast-cancer PDX in mice; assay type: in vivo, Rag2−/−γc−/− mice
Text: as §1
as §2, with “When tumor size reached 300 mm3, 13.4 mg/kg paclitaxel was injected intravenously for consecutive 5 days or/and 10 mg/kg of cirmtuzumab was injected intravenously at day 0, day 7 and then biweekly.” left out
Control groups were injected with hIgG instead of cirmtuzumab. The tumor volume (v) was determined using the formula v=(length)×(width)2×0.4.

[5] = test system: PDX4; assay: Proportion of ROR1+ cells in residual PDX4 tumors after paclitaxel (flow cytometry); assay type: in vivo, Rag2−/−γc−/− mice; conditions: PDX4, mice treated with paclitaxel 13.4 mg/kg; untreated 4.5%±1.1%
Procedure: as §2
(§3) Flow cytometry analysis. […]

[6] = test system: PDX5; assay: Proportion of ROR1+ cells in residual PDX5 tumors after paclitaxel (flow cytometry); assay type: in vivo, Rag2−/−γc−/− mice; conditions: PDX5, mice treated with paclitaxel 13.4 mg/kg; untreated 8.5%±5.8%
Procedure: as §2, §3

[7] = test system: PDX4 or PDX5; assay: CSC features (ALDH1, spheroids, Matrigel invasion, re-engraftment) of PDX tumors from paclitaxel-treated mice; assay type: in vivo, Rag2−/−γc−/− mice
Procedure: as §2, §3

[8] = test system: tumor cells from PDX4; assay: Cytotoxicity of paclitaxel on PDX tumor cells in vitro after cirmtuzumab or hIgG; assay type: cell-based; conditions: Homo sapiens
Procedure: FIG. 10. […] Single cell suspension of PDX4 or PDX5 samples were treated with cirmtuzumab or control antibody with or without increasing concentration of paclitaxel for 24 hours. Data are shown as the mean (±SEM) percentage of viable cells of triplicated samples from each of the treatments as determined by flow cytometry analysis. An asterisk indicates P<0.05 and ** indicates P<0.01 as determined by Student's t-Test.
We treated equivalent numbers of tumor cells from PDX4 or PDX5 with cirmtuzumab or control hIgG at 50 μg/ml overnight and then cultured the cells in separate wells in triplicate with increasing concentrations of paclitaxel.

[9] = test system: AKT, BMI1; assay: Wnt5a-induced AKT activation and BMI1 expression (immunoblot); assay type: cell-based; conditions: wt-Hs578T
Procedure: FIGS. 8A-8B. The figures show Enhanced BMI1 Expression Induced By Wnt5a Is Dependent On Activation Of AKT. (FIG. 8A), BMI1 mRNA level in Hs578T cells treated with Wnt5a at 100 ng/ml at indicated time point were examined by quantitative PCR (qPCR). Data shown were the mean expression levels of BMI1 relative to time 0 samples in triplicate and normalized with respect to GAPDH. Error bars indicate SEM. (FIG. 8B), Hs578T cells were cultured in serum-free medium, pre-treated with or without MK-2206 for 3 hours, and then stimulated with or without Wnt5a at 100 ng/ml for 6 hours. BMI1, pAKT and AKT were examined on these samples via immunoblot analyses. Numbers below the row for AKT provide the ratios of band densities of pAKT to AKT that were normalized to that of samples treated for 0 minutes with Wnt5a. β-Actin served as protein-loading control. Numbers below the row for BMI1 provide the ratios of band densities of BMI1 to β-Actin, normalized with respect to that of samples treated for 0 minutes with Wnt5a.
Immunoblot analyses. Cells used for examination for proteins via immunoblot analysis were treated with control antibody or cirmtuzumab (50 μg/ml) for overnight and then were cultured in medium supplemented with or without recombinant Wnt5a (100 ng/ml). […] The protein concentration was determined using a bicinchoninic acid protein assay (Pierce). […]

CC(=O)O[C@H]1C(=O)[C@@]2(C)[C@H]([C@H](OC(=O)c3ccccc3)[C@]3(O)C[C@H](OC(=O)[C@H](O)[C@@H](NC(=O)c4ccccc4)c4ccccc4)C(C)=C1C3(C)C)[C@]1(OC(C)=O)CO[C@@H]1C[C@@H]2O [paclitaxel]
Mice that developed PDX/mice engrafted ([1]; 1 × 10^4 cells from PDX4 that relapsed after therapy (Table 8, FIG. 5C)): 5/5
Mice that developed PDX/mice engrafted ([1]; 1 × 10^5 cells from PDX4 that relapsed after therapy (Table 8, FIG. 5C)): 5/5
Tumor incidence (mice with tumors/mice implanted) ([1]; 10^3 cells re-implanted): 4/5
Tumor incidence (mice with tumors/mice implanted) ([1]; 10^4 cells re-implanted): 5/5
Frequency of Tumorigenic Cell ([1]; PDX4 from paclitaxel-treated mice, ELDA software (Table 6)): 1/622
Mice that developed PDX/mice engrafted ([2]; 1 × 10^4 cells from PDX5 that relapsed after therapy (Table 8, FIG. 5C)): 3/3
Mice that developed PDX/mice engrafted ([2]; 1 × 10^5 cells from PDX5 that relapsed after therapy (Table 8, FIG. 5C)): 4/5
Tumor incidence (mice with tumors/mice implanted) ([2]; 10^3 cells re-implanted): 4/5
Tumor incidence (mice with tumors/mice implanted) ([2]; 10^4 cells re-implanted): 5/5
Frequency of Tumorigenic Cell ([2]; PDX5 from paclitaxel-treated mice, ELDA software (Table 6)): 1/622
Capacity of tumor cells of PDX that relapsed after therapy to re-engraft immune-deficient mice [3]: readily developed secondary PDX
Tumor response of secondary PDX ([4]; 13.4 mg/kg for five consecutive days when PDX reached 300 mm^3 (FIG. 2A)): tumor regression
Tumor growth / tumor volumes in PDX4- or PDX5-bearing mice ([4]; cirmtuzumab 10 mg/kg, paclitaxel 13.4 mg/kg or the combination (FIG. 5A)): inhibited tumor growth relative to that of control-treated animals
Tumor regrowth after therapy ([4]; tumors derived from PDX with high proportions of ROR1+ cells (e.g. PDX4 or PDX5), 13.4 mg/kg for five days): re-grew shortly after therapy
Proportion of ROR1+ cells in residual tumors [5]: 61.7%±7.0%
Proportion of ROR1+ cells in residual tumors [6]: 56.4%±6.4%
Cells able to form spheroids, invade Matrigel or re-engraft in tumors of treated mice ([7]; versus matched tumors of untreated mice or the original PDX (FIG. 2C-2E)): enriched for cells that could form spheroids, invade Matrigel, or re-engraft
Proportion of ALDH1-expressing cells in tumors of treated mice ([7]; versus matched tumors of untreated mice or the original PDX (FIG. 7J)): higher proportions of ALDH1-expressing cells
IC50 ([8]; with cirmtuzumab 50 μg/ml overnight (FIG. 10)): 1 ± 1 µM
IC50 ([8]; with non-specific hIgG 50 μg/ml overnight (FIG. 10)): 23 ± 1 µM

NC1(c2ccc(-c3nc4ccn5c(=O)[nH]nc5c4cc3-c3ccccc3)cc2)CCC1 [MK-2206]
Wnt5a-enhanced expression of BMI1 [9]: inhibited the capacity of Wnt5a to enhance expression of BMI1
Wnt5a-induced activation of AKT [9]: impaired the capacity of Wnt5a to induce activation of AKT
